Drawing on a melting point compilation (Tetko et al.), this text covers melting point for 87 compounds.

Broadly, the melting point is the temperature of the solid-liquid transition.

On to `Cc1ccc(-n2nc(Br)cc2C(=O)O)cc1`, for which the melting point was in the range of 219 to 221 °C. To `CC(C)(C)c1noc2ncc(C(=O)O)cc12` belongs 207 to 209 °C. For `CC(C)c1cccc(-c2ccc(C(=O)O)o2)c1`, the melting point lay within 84 to 86 °C. Compound `O=C(O)CC1CCCN1C(=O)c1ccc(Br)c(F)c1` (configuration not stated) gave a melting point of 134 to 136 °C. For the compound `O=C(O)c1cnnn1-c1ccccc1Cl`, the melting point fell in the range of 174 to 176 °C. Under `COC(=O)c1ccc(NS(=O)(=O)c2ccc(C)cc2)cc1` stands 150 to 152 °C; under `C=CCSc1nc2ccccc2[nH]1`, 139 to 141 °C. For `O=C(c1ccccc1)c1ccccc1Br`, the melting point is 72 to 74 °C. Under `Cc1cc2n(n1)C(=O)CC(=O)N2` stands 219 to 221 °C; under `Cc1cc2[nH]c(=O)c3ccccc3n2n1`, 278 to 282 °C. With `Cc1cc(Cl)nc2c(C(C)C)cccc12`, the melting point fell in the range of 43 to 45 °C. As to `OCCN(Cc1ccccc1)Cc1ccccc1`, the melting point was 41 to 43 °C. Under `COCCOc1ccc(NC(=O)OCC(F)(F)F)cn1` stands 86 to 88 °C; under `CC(C)C(=O)N1CCCC(C(=O)O)C1` (configuration not stated), 131 to 133 °C. To `Cc1ccc(C(=O)C(Cl)c2ccc(C)cc2)cc1` (configuration not stated) belongs 67 to 69 °C; to `O=C(O)c1cc(N2CCNC2=O)ccc1F`, 319 to 321 °C. Take `O=C(c1ccsc1)N1CCCNCC1`: the melting point fell in the range of 98 to 100 °C. To `COc1ccc(N)cc1-n1cnnn1` belongs 139 to 141 °C; to `Clc1ccc(SCc2nc(Cl)c3c4c(sc3n2)CCC4)cc1`, 71 to 75 °C; to `NC(=O)NC(CC(=O)O)c1ccccc1` (configuration not stated), 194 to 196 °C. Turning to `O=C(O)c1c[nH]c(=O)cn1`, the melting point lay in the range of 265 to 267 °C. As to `Cc1ccc(C2(C)NC(=O)NC2=O)c(C)c1` (configuration not stated), the melting point lay in the range of 144 to 146 °C. Under `CCC(Nc1c([N+](=O)[O-])c(C)nn1C)C(=O)O` (configuration not stated) stands 129 to 131 °C; under `O=C(O)CN1C(=O)COc2cc(Br)ccc21`, 234 to 236 °C; under `CC(CC(N)=S)n1cc(Cl)cn1` (configuration not stated), 128 to 130 °C. To `COc1ccc(CC(N)=NO)cc1OC` belongs 135 to 137 °C; to `O=C(O)CNS(=O)(=O)c1ccc(F)c(F)c1F`, 175 to 177 °C; to `Nc1nc(CCl)nc(Nc2ccccc2)n1`, 139 to 141 °C. Under `COc1cccc(NC(=O)c2ccccc2N(C)C(=O)CCC(=O)O)c1` stands 125 to 127 °C. `CC1CN=C(Nc2cccc(S(=O)(=O)N(C)C)c2)S1` (configuration not stated) registered a melting point of 111 to 113 °C. `CC(C)S(=O)(=O)Cc1cccc(N)c1` displayed a melting point of 113 to 115 °C. Compound `C=CCn1c(N)c(C#N)sc1=S` displayed a melting point of 174 to 176 °C. In the case of `Cc1cc(C(=O)O)cc(S(C)(=O)=O)c1F`, the melting point lay within 229 to 231 °C. Under `O=[N+]([O-])c1ccccc1CSc1ncccn1` stands 60 to 62 °C; under `O=S(=O)(Cl)c1ccc(F)c2ncccc12`, 104 to 106 °C; under `CC(C)CCC1CCC(=O)NC1=O` (configuration not stated), 117 to 119 °C. Under `Cc1ccc2c(c1)CCC2=O` stands 69 to 73 °C. Under `Cc1ccccc1COc1ccccc1C(=O)O` stands 103 to 105 °C; under `O=C1CCc2c(F)cc(F)cc21`, 95 to 97 °C.

Compound `CCn1ccnc(N)c1=O` came in with a melting point of 119 to 121 °C. Turning to `COc1cccc(-c2noc(CCl)n2)c1`, the melting point was 38 to 40 °C. To `Sc1nnc(-c2ccco2)o1` belongs 173 to 175 °C. To `O=C(Nc1ccsc1C(=O)O)c1ccncc1` belongs 230 to 232 °C; to `CC(C)C(Br)C(=O)N1CCc2ccccc2C1` (configuration not stated), 90 to 92 °C; to `CCc1ncncc1C(=O)O`, 155 to 157 °C.

In turn, `COC(=O)CCc1c(C)nn(-c2ccc(C(=O)O)cc2)c1C` registered a melting point of 166 to 175 °C.

Compound `O=C(Cc1nc2ccccc2[nH]1)NCc1ccccn1` showed a melting point of 176 to 178 °C. In turn, `COc1ccc(OC)c2c(O)c(C(=O)O)cnc12` yielded a melting point of 272 to 274 °C. To `O=C(O)CN1C(=O)COc2ccccc21` belongs 229 to 231 °C.

`COC(=O)c1nc2n(n1)CCCN2`: the melting point fell in the range of 173 to 175 °C.

The compound `N#Cc1ccccc1NC(=O)CCCC(=O)O` came in with a melting point of 139 to 141 °C. Under `Clc1nc(-c2cccs2)nc2ccccc12` stands 123 to 125 °C; under `Nc1ccc(-n2cc(S(N)(=O)=O)cn2)nc1`, 218 to 220 °C; under `CCCOc1cccc(C(=O)O)c1`, 73 to 75 °C. `Cc1ccc(C(C)NC(=O)CCl)cc1C` (configuration not stated) showed a melting point of 196 to 198 °C.

Compound `O=C(O)C(F)=C1CCCC1` gave a melting point of 83 to 85 °C. To `COC(=O)CCc1ccc(N)cc1` belongs 39 to 41 °C; to `COc1nc(Cl)nc(N2CCCCCC2)n1`, 114 to 116 °C. The compound `O=C(O)C=Cc1cscn1` displayed a melting point of 174 to 176 °C. Under `c1ccc(OCc2nc3ccccc3[nH]2)cc1` stands 163 to 165 °C.

As for `Clc1ccc(-c2nnc(Br)s2)cc1`, the melting point was in the range of 135 to 137 °C. Under `Cc1nnc(N2CCC(=O)CC2)s1` stands 95 to 97 °C. Under `CN1CCN(C(=O)c2ccc(Br)cc2)CC1` stands 81 to 83 °C; under `NS(=O)(=O)N1CCOCC1`, 161 to 163 °C; under `Nc1ccc(-c2nc(C3CC3)no2)cc1Cl`, 97 to 99 °C.

Turning to `O=C(O)c1cccc(-n2cccn2)n1`, the melting point lay within 184 to 186 °C. To `COC(=O)c1nc2ncc3c(n2n1)C(=O)OCC3` belongs 197 to 199 °C; to `NC(=O)c1cc(-c2ccccc2)on1`, 202 to 204 °C; to `O=CC1=C(Sc2nc3ccccc3o2)CCCC1`, 93 to 95 °C. To `O=C(O)c1cc(Br)ncc1[N+](=O)[O-]` belongs 169 to 171 °C; to `ClCc1cnn(-c2ccccc2)c1`, 65 to 69 °C. To `Cc1sc2ncn(CC(=O)O)c(=O)c2c1C` belongs 229 to 231 °C; to `Clc1nc(-c2ccccc2)ns1`, 51 to 53 °C; to `Nc1ncn(-c2ccccc2)n1`, 146 to 148 °C.

Take `NC(=O)c1ccc(C(F)(F)F)nc1`: the melting point lay within 185 to 187 °C. To `COc1ccccc1-c1c[nH]cc1C(=O)O` belongs 195 to 197 °C; to `Cc1ccc(-c2nnc(CCC(=O)O)o2)cc1`, 169 to 171 °C.

With `COc1cc(C(C)=O)ccc1SC`, the melting point lay in the range of 92 to 94 °C. To `N#CCCOc1ccc(Br)cc1` belongs 76 to 78 °C; to `CCS(=O)(=O)c1ccc(C(=O)O)c(N)c1`, 184 to 186 °C. Under `c1ccc2nn(C3CCNC3)cc2c1` (configuration not stated) stands 79 to 81 °C; under `CNS(=O)(=O)CBr`, 64 to 66 °C; under `CCOC(=O)c1ccc(S)nc1`, 135 to 137 °C. On to `CN(C)S(=O)(=O)c1ccc(I)c(C(=O)O)c1`, for which the melting point fell in the range of 198 to 200 °C. To `O=C(O)CCN1C(=O)C2CCCCC2C1=O` (configuration not stated) belongs 81 to 83 °C; to `CCc1cc(=O)n2c([nH]c3ccccc32)c1C#N`, 244 to 246 °C; to `O=C(O)c1cccnc1Oc1cccc(Br)c1`, 167 to 169 °C.
